How the values were obtained:
[1] = target: T1, GST-LRRK2 [A2016T] (1326-2517) (Homo sapiens, UniProt Q5S007, A2016T); conditions: cited from earlier work
T1 sequence (Q5S007 1326-2527 A2016T): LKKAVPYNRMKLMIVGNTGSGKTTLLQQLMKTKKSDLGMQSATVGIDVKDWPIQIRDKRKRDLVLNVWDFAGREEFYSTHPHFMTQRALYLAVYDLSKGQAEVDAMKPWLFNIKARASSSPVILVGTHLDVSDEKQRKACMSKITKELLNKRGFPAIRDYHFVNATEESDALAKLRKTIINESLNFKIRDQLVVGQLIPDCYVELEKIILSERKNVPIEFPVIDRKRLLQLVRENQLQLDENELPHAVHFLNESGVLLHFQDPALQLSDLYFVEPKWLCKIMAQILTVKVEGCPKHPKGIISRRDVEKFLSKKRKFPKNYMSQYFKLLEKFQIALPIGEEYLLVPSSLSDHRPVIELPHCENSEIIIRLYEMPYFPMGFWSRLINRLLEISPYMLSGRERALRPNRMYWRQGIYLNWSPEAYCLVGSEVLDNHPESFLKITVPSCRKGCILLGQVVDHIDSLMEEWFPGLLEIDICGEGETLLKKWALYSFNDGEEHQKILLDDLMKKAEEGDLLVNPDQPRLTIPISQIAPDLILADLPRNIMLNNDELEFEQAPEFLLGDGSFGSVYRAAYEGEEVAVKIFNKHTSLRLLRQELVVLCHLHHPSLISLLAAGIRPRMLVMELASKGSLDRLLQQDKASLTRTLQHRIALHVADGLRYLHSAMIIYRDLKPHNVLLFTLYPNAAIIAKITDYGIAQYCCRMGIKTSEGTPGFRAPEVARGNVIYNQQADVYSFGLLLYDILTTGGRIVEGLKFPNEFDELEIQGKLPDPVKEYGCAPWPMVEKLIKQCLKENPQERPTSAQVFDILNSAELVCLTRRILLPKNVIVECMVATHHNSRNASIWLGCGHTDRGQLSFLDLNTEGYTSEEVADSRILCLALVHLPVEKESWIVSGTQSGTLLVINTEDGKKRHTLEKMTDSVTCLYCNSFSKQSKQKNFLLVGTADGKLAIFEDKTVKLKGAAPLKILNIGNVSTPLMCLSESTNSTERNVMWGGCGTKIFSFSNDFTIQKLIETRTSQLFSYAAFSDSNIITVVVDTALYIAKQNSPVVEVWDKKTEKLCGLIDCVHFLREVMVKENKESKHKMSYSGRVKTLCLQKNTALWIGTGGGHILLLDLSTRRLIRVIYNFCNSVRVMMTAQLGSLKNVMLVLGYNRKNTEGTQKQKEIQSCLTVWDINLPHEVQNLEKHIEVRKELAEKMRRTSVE

[2] = system: GFP-LRRK2 [A2016T]; experiment: Fluorescence microscopy of LRRK2 localisation, HEK 293 stable cells; type: cell-based; conditions: 1 µM, 2 h time course
[3] = system: GFP-LRRK2[A2016T+G2019S]; experiment: as above; type: cell-based; conditions: 1 µM, 2 h time course
[4] = system: GFP-LRRK1; experiment: Fluorescence microscopy of LRRK1 localisation, HEK 293 stable cells; type: cell-based; conditions: 1 µM, 2 hours
[5] = target: MYLK (Homo sapiens, UniProt Q15746); experiment: Invitrogen SelectScreen biochemical assay
Chain of MYLK (Q15746 whole entry, species assumed): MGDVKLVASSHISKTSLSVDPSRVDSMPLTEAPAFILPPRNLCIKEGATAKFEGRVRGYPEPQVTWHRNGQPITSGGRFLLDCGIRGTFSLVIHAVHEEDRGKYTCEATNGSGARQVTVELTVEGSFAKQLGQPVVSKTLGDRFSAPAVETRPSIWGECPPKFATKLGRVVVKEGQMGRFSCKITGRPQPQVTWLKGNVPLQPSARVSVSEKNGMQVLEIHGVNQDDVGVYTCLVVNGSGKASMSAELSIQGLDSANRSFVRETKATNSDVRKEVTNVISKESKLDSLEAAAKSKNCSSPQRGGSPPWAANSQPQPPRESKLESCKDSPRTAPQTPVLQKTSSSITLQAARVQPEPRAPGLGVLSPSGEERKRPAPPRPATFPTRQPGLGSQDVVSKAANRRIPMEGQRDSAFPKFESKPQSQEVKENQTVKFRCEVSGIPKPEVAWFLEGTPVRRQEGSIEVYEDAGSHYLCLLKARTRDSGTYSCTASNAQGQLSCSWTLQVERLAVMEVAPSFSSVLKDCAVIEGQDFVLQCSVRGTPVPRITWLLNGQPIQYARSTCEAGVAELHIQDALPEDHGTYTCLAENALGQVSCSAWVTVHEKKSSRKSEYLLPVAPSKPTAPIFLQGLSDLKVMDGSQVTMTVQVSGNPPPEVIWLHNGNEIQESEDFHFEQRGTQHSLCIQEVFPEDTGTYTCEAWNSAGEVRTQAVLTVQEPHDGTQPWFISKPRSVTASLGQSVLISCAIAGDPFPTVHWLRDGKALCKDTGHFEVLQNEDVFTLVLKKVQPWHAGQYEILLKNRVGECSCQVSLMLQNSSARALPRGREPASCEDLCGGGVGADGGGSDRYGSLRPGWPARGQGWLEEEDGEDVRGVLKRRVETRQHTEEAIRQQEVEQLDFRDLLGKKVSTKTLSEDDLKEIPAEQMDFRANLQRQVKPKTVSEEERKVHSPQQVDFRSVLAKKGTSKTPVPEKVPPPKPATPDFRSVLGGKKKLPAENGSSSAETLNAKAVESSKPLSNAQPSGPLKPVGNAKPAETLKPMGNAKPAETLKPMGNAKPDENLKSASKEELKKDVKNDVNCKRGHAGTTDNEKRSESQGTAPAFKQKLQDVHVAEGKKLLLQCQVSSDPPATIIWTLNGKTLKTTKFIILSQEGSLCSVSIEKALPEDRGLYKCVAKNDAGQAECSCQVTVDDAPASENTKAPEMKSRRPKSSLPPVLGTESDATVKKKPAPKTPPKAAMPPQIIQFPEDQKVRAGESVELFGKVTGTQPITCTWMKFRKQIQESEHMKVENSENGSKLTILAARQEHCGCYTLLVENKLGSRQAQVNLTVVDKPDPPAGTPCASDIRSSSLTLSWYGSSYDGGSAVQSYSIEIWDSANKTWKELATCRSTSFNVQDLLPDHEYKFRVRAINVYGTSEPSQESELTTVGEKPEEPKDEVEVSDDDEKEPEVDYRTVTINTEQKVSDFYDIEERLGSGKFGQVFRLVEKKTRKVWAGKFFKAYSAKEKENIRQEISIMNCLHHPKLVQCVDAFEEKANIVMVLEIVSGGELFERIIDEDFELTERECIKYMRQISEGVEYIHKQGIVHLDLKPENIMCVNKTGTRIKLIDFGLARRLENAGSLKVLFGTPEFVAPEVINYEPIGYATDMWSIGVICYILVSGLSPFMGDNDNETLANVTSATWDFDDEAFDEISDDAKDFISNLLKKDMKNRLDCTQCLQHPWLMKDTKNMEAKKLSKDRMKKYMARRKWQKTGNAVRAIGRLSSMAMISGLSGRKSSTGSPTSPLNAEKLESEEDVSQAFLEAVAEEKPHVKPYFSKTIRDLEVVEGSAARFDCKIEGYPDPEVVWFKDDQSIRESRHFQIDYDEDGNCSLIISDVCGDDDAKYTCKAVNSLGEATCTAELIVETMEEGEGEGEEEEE

[6] = system: kinase inactive LRRK2 {D2017A]; type: cell-based; conditions: 1 µM, 2 h
[7] = target: MKNK2 (Homo sapiens, UniProt Q9HBH9); experiment: Invitrogen SelectScreen biochemical assay
Chain of MKNK2 (Q9HBH9 whole entry, species assumed): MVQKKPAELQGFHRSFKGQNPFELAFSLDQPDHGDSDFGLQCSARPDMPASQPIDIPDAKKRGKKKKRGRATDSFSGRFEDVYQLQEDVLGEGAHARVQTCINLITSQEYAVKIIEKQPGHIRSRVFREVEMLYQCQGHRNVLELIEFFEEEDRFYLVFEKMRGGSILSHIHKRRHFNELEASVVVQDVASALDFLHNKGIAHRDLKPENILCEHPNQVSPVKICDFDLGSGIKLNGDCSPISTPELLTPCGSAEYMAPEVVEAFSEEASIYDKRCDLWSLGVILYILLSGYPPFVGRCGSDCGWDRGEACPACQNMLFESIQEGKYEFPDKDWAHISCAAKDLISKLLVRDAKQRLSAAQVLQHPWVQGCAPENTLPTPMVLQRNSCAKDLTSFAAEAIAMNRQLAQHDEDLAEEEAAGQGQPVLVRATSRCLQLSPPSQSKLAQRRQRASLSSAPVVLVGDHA

[8] = system: GFP-LRRK2[A2016T+G2019S]
[9] = Pharmacokinetics in mice; type: in vivo; conditions: mouse, plasma, po, 10 mg/kg
[10] = target: T2, CHEK2 (Homo sapiens, UniProt O96017); experiment: Invitrogen SelectScreen biochemical assay
Target sequence in this assay (O96017 whole entry, species assumed): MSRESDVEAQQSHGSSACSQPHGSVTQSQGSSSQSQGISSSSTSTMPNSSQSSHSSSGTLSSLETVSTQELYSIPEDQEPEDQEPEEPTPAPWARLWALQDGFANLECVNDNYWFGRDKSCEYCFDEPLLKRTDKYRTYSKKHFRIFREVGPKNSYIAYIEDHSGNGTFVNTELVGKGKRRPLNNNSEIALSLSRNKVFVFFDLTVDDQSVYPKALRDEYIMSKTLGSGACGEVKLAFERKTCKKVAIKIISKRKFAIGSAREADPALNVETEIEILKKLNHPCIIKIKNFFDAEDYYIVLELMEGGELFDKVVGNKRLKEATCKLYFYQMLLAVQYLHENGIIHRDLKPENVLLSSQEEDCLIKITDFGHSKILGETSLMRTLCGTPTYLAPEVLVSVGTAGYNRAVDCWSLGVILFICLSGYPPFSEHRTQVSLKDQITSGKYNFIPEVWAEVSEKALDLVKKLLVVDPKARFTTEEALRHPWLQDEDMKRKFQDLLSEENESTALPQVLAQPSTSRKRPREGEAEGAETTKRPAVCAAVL

[11] = target: MAPK7 (Homo sapiens, UniProt Q13164); experiment: KiNativ; type: binding; conditions: hPBMC and mouse brain tissue profiling
Chain of MAPK7 (Q13164 whole entry): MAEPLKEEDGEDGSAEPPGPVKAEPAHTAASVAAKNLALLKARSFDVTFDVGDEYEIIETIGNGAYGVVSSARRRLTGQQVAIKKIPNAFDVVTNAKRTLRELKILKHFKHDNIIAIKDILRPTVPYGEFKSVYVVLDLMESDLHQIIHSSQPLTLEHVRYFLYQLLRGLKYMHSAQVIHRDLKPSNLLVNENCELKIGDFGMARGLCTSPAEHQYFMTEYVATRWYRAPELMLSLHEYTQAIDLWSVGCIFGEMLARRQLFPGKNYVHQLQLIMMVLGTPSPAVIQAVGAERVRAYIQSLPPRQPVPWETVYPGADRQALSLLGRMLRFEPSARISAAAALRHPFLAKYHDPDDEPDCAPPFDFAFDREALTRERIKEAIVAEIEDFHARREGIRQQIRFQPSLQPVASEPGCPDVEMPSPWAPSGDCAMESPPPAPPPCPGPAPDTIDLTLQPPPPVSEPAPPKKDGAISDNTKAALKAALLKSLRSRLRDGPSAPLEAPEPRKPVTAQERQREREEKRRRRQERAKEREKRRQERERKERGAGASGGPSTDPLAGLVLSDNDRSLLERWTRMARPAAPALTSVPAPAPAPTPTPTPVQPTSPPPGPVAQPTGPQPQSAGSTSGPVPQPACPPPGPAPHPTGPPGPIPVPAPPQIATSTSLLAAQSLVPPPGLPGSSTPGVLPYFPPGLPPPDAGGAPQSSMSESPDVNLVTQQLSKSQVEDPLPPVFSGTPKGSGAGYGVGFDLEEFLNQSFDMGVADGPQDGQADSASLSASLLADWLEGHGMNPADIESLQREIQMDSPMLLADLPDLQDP

[12] = system: GFP-LRRK2 [A2016T]
[13] = target: AURKB (Homo sapiens, UniProt Q96GD4); experiment: Invitrogen SelectScreen biochemical assay
Chain of AURKB (Q96GD4 whole entry, species assumed): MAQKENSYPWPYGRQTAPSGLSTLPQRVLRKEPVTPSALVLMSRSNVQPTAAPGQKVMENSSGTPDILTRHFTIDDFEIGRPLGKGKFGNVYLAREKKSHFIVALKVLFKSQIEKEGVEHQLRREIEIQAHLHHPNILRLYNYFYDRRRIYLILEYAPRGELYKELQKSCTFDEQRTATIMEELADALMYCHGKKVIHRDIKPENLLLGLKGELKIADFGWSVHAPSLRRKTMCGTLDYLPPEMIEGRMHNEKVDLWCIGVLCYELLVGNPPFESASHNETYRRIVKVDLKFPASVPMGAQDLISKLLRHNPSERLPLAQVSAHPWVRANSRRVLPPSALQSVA

[14] = system: GFP-LRRK2; experiment: Fluorescence microscopy of LRRK2 localisation, HEK 293 stable cells; type: cell-based; conditions: 1 µM, 2 h time course
[15] = target: PLK1 (Homo sapiens, UniProt P53350); experiment: Invitrogen SelectScreen biochemical assay
Chain of PLK1 (P53350 whole entry): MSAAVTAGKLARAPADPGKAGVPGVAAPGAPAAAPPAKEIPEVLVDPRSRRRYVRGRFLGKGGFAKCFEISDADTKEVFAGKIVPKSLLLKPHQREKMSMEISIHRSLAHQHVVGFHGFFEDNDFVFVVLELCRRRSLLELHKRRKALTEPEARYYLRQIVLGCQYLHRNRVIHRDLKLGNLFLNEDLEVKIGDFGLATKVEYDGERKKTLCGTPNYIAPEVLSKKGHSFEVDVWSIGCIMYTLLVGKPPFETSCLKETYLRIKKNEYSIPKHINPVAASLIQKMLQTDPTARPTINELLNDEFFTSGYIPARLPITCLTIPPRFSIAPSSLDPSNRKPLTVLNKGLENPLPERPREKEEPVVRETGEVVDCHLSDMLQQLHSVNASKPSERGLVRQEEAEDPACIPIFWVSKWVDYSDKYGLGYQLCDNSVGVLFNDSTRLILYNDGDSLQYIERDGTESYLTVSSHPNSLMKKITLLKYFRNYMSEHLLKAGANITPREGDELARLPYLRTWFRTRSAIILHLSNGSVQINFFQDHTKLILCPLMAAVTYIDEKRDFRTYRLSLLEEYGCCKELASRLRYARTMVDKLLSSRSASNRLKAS

[16] = target: T3, NUAK1 (Homo sapiens, UniProt O60285); experiment: Invitrogen SelectScreen biochemical assay
T3 sequence (O60285 1-661): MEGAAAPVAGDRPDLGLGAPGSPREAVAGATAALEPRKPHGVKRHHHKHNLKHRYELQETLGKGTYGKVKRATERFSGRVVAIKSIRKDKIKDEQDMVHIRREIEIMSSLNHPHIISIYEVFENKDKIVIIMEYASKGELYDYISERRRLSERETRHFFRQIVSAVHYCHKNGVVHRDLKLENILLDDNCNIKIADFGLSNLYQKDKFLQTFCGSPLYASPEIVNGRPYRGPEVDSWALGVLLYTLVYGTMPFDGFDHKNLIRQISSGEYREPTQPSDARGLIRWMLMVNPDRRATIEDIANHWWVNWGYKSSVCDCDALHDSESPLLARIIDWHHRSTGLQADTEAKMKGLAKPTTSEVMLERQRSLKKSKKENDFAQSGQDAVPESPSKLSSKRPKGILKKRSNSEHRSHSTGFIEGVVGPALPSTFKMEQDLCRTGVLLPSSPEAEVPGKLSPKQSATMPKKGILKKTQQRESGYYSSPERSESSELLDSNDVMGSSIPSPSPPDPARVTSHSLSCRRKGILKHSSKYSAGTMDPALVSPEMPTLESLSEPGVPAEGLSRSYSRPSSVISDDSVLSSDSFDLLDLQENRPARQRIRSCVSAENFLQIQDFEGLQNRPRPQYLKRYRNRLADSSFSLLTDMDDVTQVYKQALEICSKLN

[17] = system: DCLK1; experiment: KiNativ; type: binding; conditions: hPBMC and mouse brain tissue profiling
[18] = target: T4, DCLK2 (Homo sapiens, UniProt Q8N568); experiment: Invitrogen SelectScreen biochemical assay
T4 sequence (Q8N568 1-766): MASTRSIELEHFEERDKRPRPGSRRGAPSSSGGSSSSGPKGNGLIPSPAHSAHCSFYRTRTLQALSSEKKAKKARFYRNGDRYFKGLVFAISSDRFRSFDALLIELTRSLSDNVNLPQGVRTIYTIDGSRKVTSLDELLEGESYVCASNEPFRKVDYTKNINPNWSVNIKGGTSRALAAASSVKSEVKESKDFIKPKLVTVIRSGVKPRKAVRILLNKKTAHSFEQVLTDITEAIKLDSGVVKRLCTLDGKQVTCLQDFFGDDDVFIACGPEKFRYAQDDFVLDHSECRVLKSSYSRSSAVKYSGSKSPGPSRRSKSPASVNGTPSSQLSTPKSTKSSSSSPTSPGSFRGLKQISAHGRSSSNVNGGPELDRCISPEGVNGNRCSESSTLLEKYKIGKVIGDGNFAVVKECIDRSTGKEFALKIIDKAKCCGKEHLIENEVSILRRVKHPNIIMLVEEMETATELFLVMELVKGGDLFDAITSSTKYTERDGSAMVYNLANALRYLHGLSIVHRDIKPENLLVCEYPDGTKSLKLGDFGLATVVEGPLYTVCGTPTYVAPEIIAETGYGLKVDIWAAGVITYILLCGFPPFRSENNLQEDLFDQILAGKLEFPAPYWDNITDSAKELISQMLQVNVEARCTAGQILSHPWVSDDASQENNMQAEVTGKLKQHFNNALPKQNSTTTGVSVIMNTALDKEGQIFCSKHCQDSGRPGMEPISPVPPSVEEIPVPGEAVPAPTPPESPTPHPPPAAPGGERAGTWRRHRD

[19] = target: T2, CHEK2; experiment: KiNativ; type: binding
Target sequence in this assay (O96017 whole entry): as the sequence (O96017 whole entry, species assumed) above

[20] = system: LRRK2; type: binding; conditions: hPBMC and mouse brain tissue profiling
[21] = system: endogenous LRRK2; conditions: mice, 100 mg/kg intraperitoneal, 1 h and 2 h time points

Cc1cncc2cccc(S(=O)(=O)N3CCCNC[C@@H]3C)c12 [H-1152]
fold less sensitive to inhibitor [1]: 32 fold

COc1cc(C(=O)N2CCC(N3CCN(C)CC3)CC2)ccc1Nc1ncc2c(n1)N(C)c1ccccc1C(=O)N2C [LRRK2-IN-1]
localization of LRRK2 [2]: did not affect the localization | localization of LRRK2 [3]: did not affect the localization | localization of LRRK1 [4]: does not change | IC50 [5]: > 1000 nM | dephosphorylation of Ser910/Ser935 [6]: did not induce significant dephosphorylation | IC50 [7]: > 1000 nM | dephosphorylation of Ser910/Ser935 [8]: failed to induce dephosphorylation | AUC(0-inf) [9]: 14800 ng·h/mL | bioavailability [9]: 49.3% | IC50 [10]: > 1000 nM | inhibition in KiNativ profiling [11]: confirmed inhibition | dephosphorylation of Ser910/Ser935 [12]: failed to induce dephosphorylation | IC50 [13]: > 1000 nM | localization of LRRK2 (accumulation into aggregate structures) [14]: significant accumulation | IC50 [15]: > 1000 nM | IC50 [16]: > 1000 nM | inhibition in KiNativ profiling [17]: confirmed inhibition | IC50 [18]: 45 nM | IC50 [19]: > 1000 nM | inhibition in KiNativ profiling [20]: confirmed inhibition | Ser910/Ser935 dephosphorylation of LRRK2 in the kidney [21]: complete Ser910/Ser935 dephosphorylation | dephosphorylation of LRRK2 Ser910 or Ser935 in brain [21]: no dephosphorylation

CCN(CC)CCNC(=O)c1c(C)[nH]c(/C=C2\C(=O)Nc3ccc(F)cc32)c1C [sunitinib]
fold less sensitive to inhibitor [1]: 12 fold
